# In patent US9351965B2, “Indazole derivatives useful as ERK inhibitors” (Merck Sharp & Dohme Corp., priority 2010, dated 2016):
# Molecular target: fully phosphorylated, active Mouse ERK2 protein (Mus musculus (Mouse), UniProt P63085)
# Assay: Active ERK2 (aERK) IMAP assay
# Type: biochemical
# Conditions: IMAP fluorescence polarization; 30 μM ATP; 30 minute pre-incubation
# Sequence of fully phosphorylated, active Mouse ERK2 protein (P63085 whole entry): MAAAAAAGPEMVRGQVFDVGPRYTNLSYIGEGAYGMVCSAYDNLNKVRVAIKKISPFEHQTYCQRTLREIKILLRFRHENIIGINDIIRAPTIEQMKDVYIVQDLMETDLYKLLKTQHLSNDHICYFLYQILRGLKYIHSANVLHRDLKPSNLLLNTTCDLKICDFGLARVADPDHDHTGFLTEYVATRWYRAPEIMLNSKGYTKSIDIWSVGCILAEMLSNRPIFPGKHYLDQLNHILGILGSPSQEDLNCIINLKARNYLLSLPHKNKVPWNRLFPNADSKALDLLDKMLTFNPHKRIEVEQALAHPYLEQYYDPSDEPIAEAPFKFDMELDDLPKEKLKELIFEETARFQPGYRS
row,Compound,IC50
1,"O=C(N[C@@H]1CCC[C@](O)(Cc2c(F)cccc2F)C1)c1ccc2[nH]nc(-c3ccc4ncsc4c3)c2c1 [compound 20, 3-(6-benzothiazolyl)-N-[3(S)-[(2,6-difluorophenyl)methyl]-3-hydroxy-1(R)-cyclohexyl]-1H-indazole-5-carboxamide]",33.9 nM
2,"Cc1nc2ccc(-c3n[nH]c4ccc(C(=O)N[C@@H]5CCC[C@](O)(Cc6c(F)cccc6F)C5)cc34)cn2n1 [compound 21, N-[3-(S)-[(2,6-difluorophenyl)methyl]-3-hydroxy-1(R)-cyclohexyl]-3-(2-methyl[1,2,4]triazolo[1,5-a]pyridin-6-yl)-1H-indazole-5-carboxamide]",20.9 nM
3,"COc1cccc(F)c1C[C@@]1(O)CCC[C@@H](NC(=O)c2ccc3[nH]nc(-c4ccnc(C)c4)c3c2)C1 [compound 22, N-[3(S)-[(2-fluoro-6-methoxyphenyl)methyl]-3-hydroxy-1(R)-cyclohexyl]-3-(2-methyl-4-pyridinyl)-1H-indazole-5-carboxamide]",2 nM
4,"COc1cccc(F)c1C[C@@]1(O)CCC[C@@H](NC(=O)c2ccc3[nH]nc(-c4ccc5nccn5c4)c3c2)C1 [compound 23, N-[3(S)-[(2-fluoro-6-methoxyphenyl)methyl]-3-hydroxy-1(R)-cyclohexyl]-3-imidazo[1,2-a]pyridin-6-yl-1H-indazole-5-carboxamide]",2.2 nM
5,"COc1cccc(F)c1C[C@@]1(O)CCC[C@@H](NC(=O)c2ccc3[nH]nc(-c4ccc5nc(C)sc5c4)c3c2)C1 [compound 24, N-[3(S)-[(2-fluoro-6-methoxyphenyl)methyl]-3-hydroxy-1(R)-cyclohexyl]-3-(2-methyl-6-benzothiazolyl)-1H-indazole-5-carboxamide]",8.9 nM
6,"COc1cccc(F)c1C[C@@]1(O)CCC[C@@H](NC(=O)c2ccc3[nH]nc(-c4ccnc(OC(C)C)c4)c3c2)C1 [compound 25, N-[3(S)-[(2-fluoro-6-methoxyphenyl)methyl]-3-hydroxy-1(R)-cyclohexyl]-3-[2-(1-methylethoxy)-4-pyridinyl]-1H-indazole-5-carboxamide]",333 nM
7,"COc1cccc(F)c1C[C@@]1(O)CCC[C@@H](NC(=O)c2ccc3[nH]nc(-c4ccc(OC(C)C)cc4)c3c2)C1 [compound 26, N-[3(S)-[(2-fluoro-6-methoxyphenyl)methyl]-3-hydroxy-1(R)-cyclohexyl]-3-[4-(1-methylethoxy)phenyl]-1H-indazole-5-carboxamide]",79 nM
8,"Cc1cc(-c2n[nH]c3ccc(C(=O)NC4CCCC(Oc5c(C)cccc5C)C4)cc23)ccn1 (stereo not drawn) [compound 31, N-[3-(2,6-dimethylphenoxy)cyclohexyl]-3-(2-methyl-4-pyridinyl)-1H-indazole-5-carboxamide]",469 nM
9,"Cc1cc(-c2n[nH]c3ccc(C(=O)NC4CCCC(Oc5c(F)cccc5F)C4)cc23)ccn1 (stereo not drawn) [compound 32, N-[3-(2,6-difluorophenoxy)cyclohexyl]-3-(2-methyl-4-pyridinyl)-1H-indazole-5-carboxamide]",573 nM
10,"Cc1cc(-c2n[nH]c3ccc(C(=O)NC4CCCC(Oc5ccccc5F)C4)cc23)ccn1 (stereo not drawn) [compound 33, N-[3-(2-fluorophenoxy)cyclohexyl]-3-(2-methyl-4-pyridinyl)-1H-indazole-5-carboxamide]",114 nM
11,"Cc1cc(-c2n[nH]c3ccc(C(=O)NN4CCCC(Oc5ccccc5Cl)C4)cc23)ccn1 (stereo not drawn) [compound 36, N-[3-(2-chlorophenoxy)-1-piperidinyl]-3-(2-methyl-4-pyridinyl)-1H-indazole-5-carboxamide]",40.4 nM
12,"COC1(Cc2ccccc2F)CCCC(NC(=O)c2ccc3[nH]nc(-c4ccnc(C)c4)c3c2)C1 (stereo not drawn) [compound 39, N-[3-[(2-fluorophenyl)methyl]-3-methoxycyclohexyl]-3-(2-methyl-4-pyridinyl)-1H-indazole-5-carboxamide]",28.5 nM
13,"COC1(Cc2ccccc2F)CCCC(NC(=O)c2ccc3[nH]nc(-c4ccnc(C)c4)c3c2)C1 (stereo not drawn) [compound 40, N-[3-[(2-fluorophenyl)methyl]-3-methoxycyclohexyl]-3-(2-methyl-4-pyridinyl)-1H-indazole-5-carboxamide]",205 nM
14,"Cc1cc(-c2n[nH]c3ccc(C(=O)NC4CCCC(CO)(Oc5ccccc5)C4)cc23)ccn1 (stereo not drawn) [compound 41, N-[3-(hydroxymethyl)-3-phenoxycyclohexyl]-3-(2-methyl-4-pyridinyl)-1H-indazole-5-carboxamide]",98.9 nM
15,"Cc1cc(-c2n[nH]c3ccc(C(=O)NC4CCCC(Oc5cccc(F)c5)(C(N)=O)C4)cc23)ccn1 (stereo not drawn) [compound 42, N-[3-(aminocarbonyl)-3-(3-fluorophenoxy)cyclohexyl]-3-(2-methyl-4-pyridinyl)-1H-indazole-5-carboxamide]",11.2 nM
16,"Cc1cc(-c2n[nH]c3ccc(C(=O)NC4CCCC(O)(C(F)(F)c5ccccc5)C4)cc23)ccn1 (stereo not drawn) [compound 46, N-[3-(difluorophenylmethyl)-3-hydroxycyclohexyl]-3-(2-methyl-4-pyridinyl)-1H-indazole-5-carboxamide]",630 nM
17,"Cc1cc(-c2n[nH]c3ccc(C(=O)NC4CCCC(O)(C(=O)c5ccccc5)C4)cc23)ccn1 (stereo not drawn) [compound 47, N-(3-benzoyl-3-hydroxycyclohexyl)-3-(2-methyl-4-pyridinyl)-1H-indazole-5-carboxamide]",577 nM
18,"Cc1cc(-c2n[nH]c3ccc(C(=O)NC4CCCC(O)(C(F)(F)c5ccccc5)C4)cc23)ccn1 (stereo not drawn) [compound 48, N-[3-(difluorophenylmethyl)-3-hydroxycyclohexyl]-3-(2-methyl-4-pyridinyl)-1H-indazole-5-carboxamide]",106 nM
19,"Cc1cc(-c2n[nH]c3ccc(C(=O)NC4CCCC(O)(C(O)c5ccccc5)C4)cc23)ccn1 (stereo not drawn) [compound 49, N-[3-hydroxy-3-(hydroxyphenylmethyl)cyclohex-yl]-3-(2-methyl-4-pyridinyl)-1H-indazole-5-carboxamide (diasterimer 1)]",25 nM
20,"Cc1cc(-c2n[nH]c3ccc(C(=O)NC4CCCC(O)(C(O)c5ccccc5)C4)cc23)ccn1 (stereo not drawn) [compound 50, N-[3-hydroxy-3-(hydroxyphenylmethyl)cyclohex-yl]-3-(2-methyl-4-pyridinyl)-1H-indazole-5-carboxamide (diasterimer 2)]",47.5 nM
21,"Cc1cc(-c2n[nH]c3ccc(C(=O)NC4CCCC(O)(C(O)c5ccccc5)C4)cc23)ccn1 (stereo not drawn) [compound 51, N-[3-hydroxy-3-(hydroxyphenylmethyl)cyclohex-yl]-3-(2-methyl-4-pyridinyl)-1H-indazole-5-carboxamide (diasterimer 3)]",204 nM
22,"Cc1cc(-c2n[nH]c3ccc(C(=O)NC4CCCC(O)(C(O)c5ccccc5)C4)cc23)ccn1 (stereo not drawn) [compound 52, N-[3-hydroxy-3-(hydroxyphenylmethyl)cyclohex-yl]-3-(2-methyl-4-pyridinyl)-1H-indazole-5-carboxamide (diasterimer 4)]",294 nM
23,"Cc1cc(-c2n[nH]c3ccc(C(=O)NC4CCCC(O)(C(=O)c5ccccc5)C4)cc23)ccn1 (stereo not drawn) [compound 53, N-(3-benzoyl-3-hydroxycyclohexyl)-3-(2-methyl-4-pyridinyl)-1H-indazole-5-carboxamide]",258 nM
24,"Cc1cc(-c2n[nH]c3ccc(C(=O)N[C@@H]4CCC[C@](O)(Cn5ncc6ccccc65)C4)cc23)ccn1 [compound 65, N-[3(R)-hydroxy-3-(1H-indazol-1-ylmethyl)-1(R)-cyclohexyl]-3-(2-methyl-4-pyridinyl)-1H-indazole-5-carboxamide]",988 nM
